Target: T1, RORc (Homo sapiens, UniProt P51449)
T1 sequence (P51449 269-508 limits assumed): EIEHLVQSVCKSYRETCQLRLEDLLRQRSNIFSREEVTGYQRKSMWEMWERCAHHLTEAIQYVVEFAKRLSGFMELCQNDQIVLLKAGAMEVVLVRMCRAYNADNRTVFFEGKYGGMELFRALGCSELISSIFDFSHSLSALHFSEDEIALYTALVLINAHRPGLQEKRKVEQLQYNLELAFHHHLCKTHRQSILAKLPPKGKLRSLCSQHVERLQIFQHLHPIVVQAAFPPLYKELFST
Assay: In vitro RORc ligand binding assay (25-[3H]hydroxycholesterol displacement)
Conditions: IC50, IC50 values for RORc; unit inferred

| IC50 [nM] | SMILES |
| --- | --- |
| 35.5 | CC(=O)N1CCC(OCC(O)CO)(c2cc(F)c(CN3[C@@H](C)CC[C@H](c4ccccc4)S3(=O)=O)cc2F)CC1 (stereo in doubt) [Compound 168, 1-[4-[2,5-difluoro-4-[[(3S,6R)-3-methyl-1,1-dioxo-6-phenyl-thiazinan-2-yl]methyl]phenyl]-4-[(2S)-2,3-dihydroxypropoxy]-1-piperidyl]ethanone] |
| 20.8 | CC(=O)N1CCC(OCC(O)CO)(c2cc(F)c(CN3[C@@H](C)CC[C@H](c4ccccc4)S3(=O)=O)cc2F)CC1 (stereo in doubt) [Compound 169, 1-[4-[2,5-difluoro-4-[[(3S,6R)-3-methyl-1,1-dioxo-6-phenyl-thiazinan-2-yl]methyl]phenyl]-4-[(2R)-2,3-dihydroxypropoxy]-1-piperidyl]ethanone] |
| 11.7 | C[C@H]1CC[C@H](c2ccccc2)S(=O)(=O)N1Cc1cc(F)c(C2(OCC(O)CO)CCOCC2)cc1F (stereo in doubt) [Compound 170, (2S)-3-[4-[2,5-difluoro-4-[[(3S,6R)-3-methyl-1,1-dioxo-6-phenyl-thiazinan-2-yl]methyl]phenyl]tetrahydropyran-4-yl]oxypropane-1,2-diol] |
| 11.6 | C[C@H]1CC[C@H](c2ccccc2)S(=O)(=O)N1Cc1cc(F)c(C2(OCC(O)CO)CCOCC2)cc1F (stereo in doubt) [Compound 171, (2R)-3-[4-[2,5-difluoro-4-[[(3S,6R)-3-methyl-1,1-dioxo-6-phenyl-thiazinan-2-yl]methyl]phenyl]tetrahydropyran-4-yl]oxypropane-1,2-diol] |
| 180 | C[C@H]1CC[C@H](c2ccccc2)S(=O)(=O)N1Cc1ccc(C2(O)CCC3(CC2)OCCO3)cc1F [Compound 24, 8-[3-Fluoro-4-((3S,6R)-3-methyl-1,1-dioxo-6-phenyl-[1,2]thiazinan-2-ylmethyl)-phenyl]-1,4-dioxa-spiro[4.5]decan-8-ol] |
| 22 | C[C@H]1CC[C@H](c2ccccc2)S(=O)(=O)N1Cc1ccc([C@]2(C(N)=O)CC[C@@H](n3cnnc3)CC2)cc1F [Compound 25, 1-[3-Fluoro-4-((3S,6R)-3-methyl-1,1-dioxo-6-phenyl-[1,2]thiazinan-2-ylmethyl)-phenyl]-4-[1,2,4]triazol-4-yl-cyclohexanecarboxylic acid amide] |
| 32 | C[C@H]1CC[C@H](c2ccccc2)S(=O)(=O)N1Cc1ccc([C@]2(CO)CC[C@@H](n3cnnc3)CC2)cc1F [Compound 26, {1-[3-Fluoro-4-((3S,6R)-3-methyl-1,1-dioxo-6-phenyl-[1,2]thiazinan-2-ylmethyl)-phenyl]-4-[1,2,4]triazol-4-yl-cyclohexyl}-methanol] |
| 500 | COC(=O)C1(c2ccc(CN3[C@@H](C)CC[C@H](c4ccccc4)S3(=O)=O)cc2)CCOCC1 [Compound 27, 4-[4-((3S,6R)-3-Methyl-1,1-dioxo-6-phenyl-[1,2]thiazinan-2-ylmethyl)-phenyl]-tetrahydro-pyran-4-carboxylic acid methyl ester] |
| 4400 | C[C@H]1CCC(c2ccccc2)S(=O)(=O)N1Cc1ccc(C2(C(=O)O)CCOCC2)cc1 (stereo partly drawn) [Compound 29, 4-[4-((S)-3-Methyl-1,1-dioxo-6-phenyl-[1,2]thiazinan-2-ylmethyl)-phenyl]-tetrahydro-pyran-4-carboxylic acid] |
| 680 | C[C@H]1CC[C@H](c2ccccc2)S(=O)(=O)N1Cc1ccc(C2(C#N)CCOCC2)cc1 [Compound 30, 4-[4-((3S,6R)-3-Methyl-1,1-dioxo-6-phenyl-[1,2]thiazinan-2-ylmethyl)-phenyl]-tetrahydro-pyran-4-carbonitrile] |
| 420 | C[C@H]1CC[C@H](c2ccccc2)S(=O)(=O)N1Cc1ccc(C2(C(N)=O)CCOCC2)cc1 [Compound 31, 4-[4-((3S,6R)-3-Methyl-1,1-dioxo-6-phenyl-[1,2]thiazinan-2-ylmethyl)-phenyl]-tetrahydro-pyran-4-carboxylic acid amide] |
| 310 | C[C@H]1CC[C@H](c2ccccc2)S(=O)(=O)N1Cc1ccc(C2(CO)CCOCC2)cc1 [Compound 32, {4-[4-((3S,6R)-3-Methyl-1,1-dioxo-6-phenyl-[1,2]thiazinan-2-ylmethyl)-phenyl]-tetrahydro-pyran-4-yl}-methanol] |
| 1800 | CC(=O)N[C@H]1CC[C@](C#N)(c2ccc(CN3[C@@H](C)CC[C@@H](c4ccccc4)S3(=O)=O)c(F)c2)CC1 [Compound 33, N-{4-Cyano-4-[3-fluoro-4-((3S,6S)-3-methyl-1,1-dioxo-6-phenyl-[1,2]thiazinan-2-ylmethyl)-phenyl]-cyclohexyl}-acetamide] |
| 2300 | CC(=O)N[C@H]1CC[C@](C#N)(c2ccc(CN3[C@@H](C)CC[C@H](c4ccccc4)S3(=O)=O)c(F)c2)CC1 [Compound 34, N-{4-Cyano-4-[3-fluoro-4-((3S,6R)-3-methyl-1,1-dioxo-6-phenyl-[1,2]thiazinan-2-ylmethyl)-phenyl]-cyclohexyl}-acetamide] |
| 820 | C[C@H]1CC[C@H](c2ccccc2)S(=O)(=O)N1Cc1ccc(C2(C(=O)N(C)C)CCOCC2)cc1 [Compound 35, 4-[4-((3S,6R)-3-Methyl-1,1-dioxo-6-phenyl-[1,2]thiazinan-2-ylmethyl)-phenyl]-tetrahydro-pyran-4-carboxylic acid dimethylamide] |
| 13 | C[C@H]1CC[C@@H](c2ccccc2)S(=O)(=O)N1Cc1cc(F)c([C@]2(O)CC[C@@H](n3cnnc3)CC2)cc1F [Compound 36, 1-[2,5-Difluoro-4-((3S,6S)-3-methyl-1,1-dioxo-6-phenyl-[1,2]thiazinan-2-ylmethyl)-phenyl]-4-[1,2,4]triazol-4-yl-cyclohexanol] |
| 20 | C[C@H]1CC[C@H](c2ccccc2)S(=O)(=O)N1Cc1cc(F)c([C@]2(O)CC[C@@H](n3cnnc3)CC2)cc1F [Compound 37, 1-[2,5-Difluoro-4-((3S,6R)-3-methyl-1,1-dioxo-6-phenyl-[1,2]thiazinan-2-ylmethyl)-phenyl]-4-[1,2,4]triazol-4-yl-cyclohexanol] |
| 480 | COC(=O)C1(c2ccc(CN3[C@@H](C)CC[C@@H](c4ccccc4)S3(=O)=O)c(F)c2)CCOCC1 [Compound 38, 4-[3-Fluoro-4-((3S,6S)-3-methyl-1,1-dioxo-6-phenyl-[1,2]thiazinan-2-ylmethyl)-phenyl]-tetrahydro-pyran-4-carboxylic acid methyl ester] |
| 190 | COC(=O)C1(c2ccc(CN3[C@@H](C)CC[C@H](c4ccccc4)S3(=O)=O)c(F)c2)CCOCC1 [Compound 39, 4-[3-Fluoro-4-((3S,6R)-3-methyl-1,1-dioxo-6-phenyl-[1,2]thiazinan-2-ylmethyl)-phenyl]-tetrahydro-pyran-4-carboxylic acid methyl ester] |
| 570 | CNC(=O)C1(c2ccc(CN3[C@@H](C)CCC(c4ccccc4)S3(=O)=O)cc2)CCOCC1 (stereo partly drawn) [Compound 40, 4-[4-((S)-3-Methyl-1,1-dioxo-6-phenyl-[1,2]thiazinan-2-ylmethyl)-phenyl]-tetrahydro-pyran-4-carboxylic acid methylamide] |
| 1200 | C[C@H]1CC[C@@H](c2ccccc2)S(=O)(=O)N1Cc1ccc(C2(O)CCS(=O)(=O)CC2)cc1F [Compound 41, (3S,6S)-2-(2-fluoro-4-(4-hydroxy-1,1-dioxidotetrahydro-2H-thiopyran-4-yl)benzyl)-3-methyl-6-phenyl-1,2-thiazinane 1,1-dioxide] |

Source: patent US10131644B2, “Aryl sultam derivatives as RORc modulators” (Genentech, Inc., priority 2014, dated 2018)
